Results: US6019959A, “Oligomeric compounds that contain perfluoroalkyl, process for their production, and their use in NMR diagnosis” (Schering Aktiengesellschaft, priority 1998, dated 2000)

Assays:
[1] = Determination of the T1-relaxivity with a Minispec pc 20 in human plasma; type: physicochemical; settings: 0.47 T (20 MHz), 37° C., human plasma, normalized to one metal atom
Procedure: Determination of the T^1 -Relaxivity of Selected Compounds
The relaxivity of the following compounds was determined
with a Minispec pc 20 (20 MHz, 0.47 T) at 37° C. in human plasma
and compared to that of Gd-DTPA-polylysine and Magnevist^(R) as
comparison substances. Since the substances according to the
invention contain more than one metal atom, the relaxivity was
normalized to one metal atom for purposes of comparison.

[2] = T1-relaxivity of commercially available 1H-NMR contrast media; type: physicochemical; settings: 39° C., 0.47 T
[3] = In-vivo comparison with an intravascular and an extracellular contrast medium in blocked kidneys (diffusibility); parameters: species or system rats; settings: i.v., blocked renal vessels, compound 2 set at 100%
Procedure: As test animals, three 250 g male (Schering-SPF) rats were used. The renal vessels in the animals were blocked to prevent renal elimination and, assuming that fecal elimination is negligible, to obtain a measure of the diffusibility of the formulation according to the invention from the blood into the surrounding tissue. 0.5 ml (in each case 10 mmol/l) of the following contrast medium solution was intravenously administered per animal: a mixture consisting of 1 part each of the compound of Example 1g, named compound 1 below, of intravascular contrast medium Eu-DTPA-albumin, named compound 2 below and of extracellular contrast medium Dy-DTPA, named compound 3 below. Via a catheter in the common carotid artery, blood samples were taken at the following times: 15, 30, 45, 60, 90 seconds; 3, 5, 10, 15 minutes p.i. In the blood samples that were obtained, in each case the concentrations of gadolinium (Gd), europium (Eu) and dysprosium (Dy) were measured in parallel using atom emission spectrometry (ICP-AES). The proportion of the intravascular contrast medium compound 2 (Eu) that remains in the blood space was set at 100%. It was possible to compare the proportion of the formulation according to the invention of compound 1 (Gd) and compound 3 (Dy, extracellular comparison substance) that remained in the blood space by the different labeling in the same animal, and the proportion was set as a percentage of the concentration of compound 2.

[4] = Blood elimination kinetics after one-time intravenous administration; type: in vivo, rats; settings: two-compartment model, n=3
Procedure: (§1) For this purpose, after one-time intravenous administration (via a caudal vein) of the substances (dose: ≈100 μmol of metal per kg of body weight), the substance concentration in the blood (based on the Gd or Dy content) was determined over a period of up to 120 minutes p.i. using ICP-AES. The pharmacokinetic parameters: distribution volume (Vss), total clearance (CLtot) and elimination half-life (tb) were calculated with a special computer program (TOPFIT 2.0; Thomae, Schering, Godecke), whereby a two-compartment distribution model was used as a basis.
The Gd and Dy contents in the blood were determined using ICP-AES.
as §1, with “metal” for “Gd or Dy”

[5] = Table 3, i.v. ≈100 μmol metal/kg
[6] = Table 4, i.v. ≈100 μmol metal/kg

Molecule: C[NH2+]C[C@H](O)[C@@H](O)[C@H](O)[C@H](O)CO.C[NH2+]C[C@H](O)[C@@H](O)[C@H](O)[C@H](O)CO.O=C([O-])CN(CCN(CC(=O)[O-])CC(=O)[O-])CCN(CC(=O)[O-])CC(=O)[O-].[Gd+3] [Magnevist, di--N-methylglucamine salt of the Gd-DTPA complex, reference compound]
- R^1 (T^1-relaxivity) [1]: 4.8 L/mmol/s
- T^1-relaxivity [2]: 3.5 to 4.9 mM⁻¹ s⁻¹

Molecule: 1,4,7-Tris{N-[3,9-bis(N-carboxylatomethyl)]-6-[N-(3-aza-2,5-dioxo-pentane)-1,5-diyl]-3,6,9-triazaundecane-1-carboxylato-11-acid, Gd complex, monosodium salt}-10-N-{undecanoyl-<11-amino-N-[acetyl-(2-amino-N-ethyl-N-perfluorooctyl-sulfonyl)]>}-1,4,7,10-tetraazacyclododecane [25f)]
- R^1 (T^1-relaxivity) [1]: 15.1 L/mmol/s

Molecule: 1,4,7-Tris{1,4,7-tris-(N-carboxylatomethyl)-10-[N-(4,7-diaza-3,6,9-trioxo)-nonane-2,9-diyl]-1,4,7,10-tetraazacyclododecane, Gd complex-10-(N-22F,22F,22F,21F,21F,20F,20F,19F,19F,18F,18F,17F,17F,16F,16F,15F,15F-heptadecafluoro-12-oxa-docosanoyl)-1,4,7,10-tetraazacyclododecane [14e)]
- R^1 (T^1-relaxivity) [1]: 19.3 L/mmol/s

Molecule: 1,4,7-Tris{N-3,9-bis(carboxylatomethyl)-6-[N-3-aza-2,5-dioxo-pentane-1,5-diyl]-3,6,9-triazaundecane-1-carboxylato-11-acid, Gd complex, sodium salt}-10-[N-acetyl-(2-amino-N-ethyl-N-perfluorooctylsulfonyl)]-1,4,7,10-tetraazacyclododecane [18d)]
- R^1 (T^1-relaxivity) [1]: 23.0 L/mmol/s

Molecule: 1,4,7-Tris{N-3,3,6-tris(carboxylatomethyl)-6-[N-3-aza-2,5-dioxo-pentane-1,5-diyl]-3,6,9-triazaundecane-1,11-dioic acid, Gd complex, monosodium salt}-10-2H,2H,4H,4H,5H,5H-3-oxa-perfluoro-tridecanoyl)-1,4,7,10-tetraazacyclododecane [8b)]
- R^1 (T^1-relaxivity) [1]: 20.6 L/mmol/s

Molecule: 1,4,7-Tris{N-hexanoyl-2,6-bis<amino-N-acetyl-2-[aminopropanoyl-(2-yl)]-[1,4,7-tris(N-carboxylatomethyl)-1,4,7,10-tetraazacyclododecan-10-yl, Gd complex]>}-10-[N-acetyl-(2-amino-N-ethyl-N-perfluorooctylsulfonyl)]-1,4,7,10-tetraazacyclododecane [Example 27]
- R^1 (T^1-relaxivity) [1]: 16.1 L/mmol/s

Molecule: Dy-DTPA [reference compound]
- Percentage of the dose that remains in the blood space ([3]; 30 seconds p.i.): 48%
- Percentage of the dose that remains in the blood space ([3]; 3 minutes p.i.): 25%
- Percentage of the dose that remains in the blood space ([3]; 10 minutes p.i.): 21%
- Distribution volume Vss (MEAN) [4, 5]: 0.17 Ukg
- Elimination half-life tβ (MEAN) [4, 5]: 20.7 min
- Total clearance CLtot (MEAN) [4, 5]: 6.75 mU (min*kg)
- tα (MEAN) [4, 5]: 2.07 min
- Distribution volume Vss (MEAN) [4, 6]: 0.17 Ukg
- Elimination half-life tβ (MEAN) [4, 6]: 18.5 min
- Total clearance CLtot (MEAN) [4, 6]: 6.90 mL·kg·min
- tα (MEAN) [4, 6]: 1.48 min

Molecule: C[NH2+]C[C@H](O)[C@@H](O)[C@H](O)[C@H](O)CO.O=C([O-])CN1CCN(CC(=O)[O-])CCN(CC(=O)[O-])CCN(CC(=O)[O-])CC1.[Gd+3] [Dotarem, meglumine salt of Gd-DOTA (Gadolinium(III)complex of 1,4,7,10-tetracarboxymethyl-1,4,7,10-tetraazacyclododecane)]
- T^1-relaxivity [2]: 3.5 to 4.9 mM⁻¹ s⁻¹

Molecule: Eu-DTPA-albumin [compound 2]
- Percentage of the dose that remains in the blood space ([3]; 30 seconds p.i.): 100%
- Percentage of the dose that remains in the blood space ([3]; 3 minutes p.i.): 100%
- Percentage of the dose that remains in the blood space ([3]; 10 minutes p.i.): 100%

Molecule: 1,4,7-Tris{N-hexanoyl-2,6-bis<amino-N-acetyl-2-[3,9-bis(N-carboxylato-methyl)-6-yl-3,6,9-triazaundecane-1-carboxylato-11-acid, Gd complex, monosodium salt]>}-10-[N-acetyl-(2-amino-N-ethyl-N-perfluorooctylsulfonyl)]-1,4,7,10- tetraazacyclododecane [26d)]
- R^1 (T^1-relaxivity) [1]: 13.0 L/mmol/s

Molecule: CC(O)CN1CCN(CC(=O)[O-])CCN(CC(=O)[O-])CCN(CC(=O)[O-])CC1.[Gd+3] (stereo not shown) [Pro Hance]
- T^1-relaxivity [2]: 3.5 to 4.9 mM⁻¹ s⁻¹

Molecule: CNC(=O)CN(CCN(CCN(CC(=O)[O-])CC(=O)NC)CC(=O)[O-])CC(=O)[O-].[Gd+3] [Omniscan]
- T^1-relaxivity [2]: 3.5 to 4.9 mM⁻¹ s⁻¹
